Data on 38 compounds can be found in patent US20220144826A1, “Heteroaromatic and Heterobicyclic Aromatic Derivatives for the Treatment of Ferroptosis-Related Disorders” (COLLABORATIVE MEDICINAL DEVELOPMENT, LLC, priority 2019, published 2022).

The first assay has as its system N27 rat dopaminergic neural cells. The assay is described as follows: MTT assay in N27 rat dopaminergic neural cells: inhibition of RSL3-induced cell death (ferroptosis). The class given is cell-based. The settings on record: Rattus norvegicus, N27, 24 h, ferroptosis induced by 0.5 μM RSL3, 24 hours, viability by MTT. How it is done:
MTT Assay in N27 Rat Dopaminergic Neural Cells
N27 rat dopaminergic neural cells (Millipore, SCC048) were cultured in RPMI-1640 media (Wisent, 350-000) supplemented with 1×GlutaMAX (Gibco, 35050-061), 10% FBS (embryonic stem cell qualified; Wisent, 920-040), and 1× Penicillin-Streptomycin (Wisent, 450-201). Cells were grown in humidified tissue culture incubator at 37° C. with 5% CO2, for up to 10 passages. To evaluate the ability of test compounds to inhibit RSL3-induced cell death, N27 cells were seeded in clear 96-well tissue culture plates (Sarstedt, 83.3924) at a density of 15,000 cells/well. On the next day, the medium was changed to fresh complete RPMI-1640. Eight-point dilution series of test compounds were added to the cells. Then, ferroptosis was induced by addition of 0.5 μM RSL3 (vehicle-treated cells served as control). Ferrostatin-1 (Fer-1) was included in each assay as control inhibitor of ferroptosis. Plates were incubated for 24 hours at 37° C. in a tissue culture incubator, then cell viability was determined by MTT assay. Briefly, Thiazolyl Blue Tetrazolium Bromide [3-(4,5-dimethylthiazol-2-yl)-2,5-diphenyltetrazolium bromide or “MTT” ] (Sigma) stock solution (5 mg/mL in PBS, sterilized by filtration) was diluted 1:1 with complete growth medium, and added on the cells to a final concentration of 0.5 mg/mL. Cells were incubated with MTT for 4 hours at 37° C., protected from light, in a humidified, 5% CO2 atmosphere. Medium was then completely removed from the wells by gentle aspiration and converted MTT formazan crystals were dissolved in 150 μL of DMSO. Absorbance of converted dye was measured at 595 nm with background subtraction at 690 nm using the BioTek Cytation5 Microplate Reader. Blank reading (absorbance from wells containing media and vehicle only, no cells) was removed from all sample wells. Viability was calculated as a percentage of control cells (vehicle-treated cells were set as 100% viability). Dose-response curves were drawn and IC50 values were calculated using GraphPad Prism software, version 7.
A general note: Tetrazolium dyes change colour on reduction, which living cells bring about.
Turning to `CCCCC(=O)c1cc2c(c(Nc3ccccn3)c1)NCCC2` [Compound B-249, 1-{8-[(pyridin-2-yl)amino]-1,2,3,4-tetrahydroquinolin-6-yl}pentan-1-one], the IC50 (in general, the concentration at which inhibition is half-maximal) worked out at 343 nM. With `CON(C)C(=O)c1ccc2c(c1)C=CC(C)(C)N2` [Compound B-065], the half-inhibitory concentration (IC50) is over 3000 nM. Compound `CC(C)(C)Nc1nc(OCC(F)(F)F)cc2c1NCC(C(F)(F)F)C2` (centres unmarked) [Compound S-101, N-tert-butyl-6-(2,2,2-trifluoroethoxy)-3-(trifluoromethyl)-1,2,3,4-tetrahydro-1,7-naphthyridin-8-amine] yielded an IC50 of 1260 nM. Turning to `Cc1ccc(-c2ccc(NC(C)(C)C)c(NC(C)(C)C)n2)cc1` [Compound L-03, N^2,N^3-di-tert-butyl-6-(p-tolyl)pyridine-2,3-diamine], the IC50 worked out at 14 nM.

In turn, `CC1(Nc2nc(-c3ccc(F)cc3)nc3c2NCCC3)CCOC1` (centres unmarked) [Compound M-14, 2-(4-fluorophenyl)-N-(3-methyltetrahydrofuran-3-yl)-5,6,7,8-tetrahydropyrido[3,2-d]pyrimidin-4-amine] displayed a half-inhibitory concentration (IC50) of 29 nM. The same measure, in the same setting: the value for `CCC/C=C/c1nc2c(c(NC3CCCC3)n1)NCCC2` [Compound B-388, N-cyclopentyl-2-[(E)-pent-1-enyl]-5,6,7,8-tetrahydropyrido [3,2-d]pyrimidin-4-amine] was 40 nM; that for `CCCCC(=O)c1nc(NC2CCCC2)c2c(n1)OCCN2` [Compound B-763, 1-[4-(cyclopentylamino)-5H,6H,7H-pyrimido[4,5-b][1,4]oxazin-2-yl]pentan-1-one] was 391 nM; that for `CCCCC(O)c1cc2c(c(Nc3ccccn3)c1)NCCC2` (centres unmarked) [Compound B-250, 1-[8-(2-pyridylamino)-1,2,3,4-tetrahydroquinolin-6-yl]pentan-1-ol] was 139 nM. Consider `CCCCC(O)c1nc2c(c(N3CCCC3)n1)NCCC2` (centres unmarked) [Compound E-09], for which the half-maximal inhibitory concentration (IC50) is 492 nM. With `CCCCC(=O)c1cc2c3c(c1)nc(C(F)(F)F)n3CCC2` [Compound B-099, 1-[2-(trifluoromethyl)-1,3-diazatricyclo[6.3.1.04,12]dodeca-2,4 (12),5,7-tetraen-6-yl]pentan-1-one], the IC50 was over 3000 nM. In turn, `CCCCCc1nc(NC2CCCC2)c2c(n1)S(=O)(=O)CCN2` [Compound B-602, N-cyclopentyl-8,8-dioxo-2-pentyl-6,7-dihydro-5H-pyrimido[4,5-b][1,4]thiazin-4-amine] registered a half-maximal inhibitory concentration (IC50) of at least 3000 nM. In turn, `CCCCC(=O)c1cc2c(c(-n3ccnc3)c1)NCCC2` [Compound B-006, 1-(8-imidazol-1-yl-1,2,3,4-tetrahydroquinolin-6-yl)pentan-1-one] came in with an IC50 of over 3000 nM. Still for that read-out and setting: under `c1cc(-c2nc3c(c(NC4CCCC4)n2)NCCC3)ccn1` [Compound A-34, N-cyclopentyl-2-(4-pyridyl)-5,6,7,8-tetrahydropyrido[3,2-d]pyrimidin-4-amine] stands 57 nM; under `CCOC(=O)c1cc2c(c(C(=O)C(F)(F)F)c1)NC(C)(C)C=C2` [Compound B-101, Ethyl 2,2-dimethyl-8-(2,2,2-trifluoroacetyl)-1,2-dihydroquinoline-6-carboxylate], over 3000 nM; under `CCCCCc1nc2c(c(NC3CCCC3)n1)NC(C)(C)CC2` [Compound B-917, N-cyclopentyl-6,6-dimethyl-2-pentyl-5H,6H,7H,8H-pyrido[3,2-d]pyrimidin-4-amine], over 3000 nM. Regarding `CCCCC(O)c1cc2c(c(NC(C)(C)C)n1)NCC(C(F)(F)F)C2` (centres unmarked) [Compound R-812, 1-[8-(tert-butylamino)-3-(trifluoromethyl)-1,2,3,4-tetrahydro-1,7-naphthyridin-6-yl]pentan-1-ol], the IC50 amounted to 40 nM. Take `CCCCC(=O)c1cc2c(c(NS(=O)(=O)CC(C)C)c1)NCCC2` [Compound B-251, 2-methyl-N-(6-pentanoyl-1,2,3,4-tetrahydroquinolin-8-yl)propane-1-sulfonamide]: 9300 nM corresponded to half-maximal inhibition (IC50). For `CCC/C=C/c1nc(NC2CCOC2)c2c(n1)OCC(=O)N2` (centres unmarked) [Compound B-603, 4-[(oxolan-3-yl)amino]-2-[(1E)-pent-1-en-1-yl]-5H,6H,7H-pyrimido[4,5-b][1,4]oxazin-6-one], the half-inhibitory concentration (IC50) is over 3000 nM. `CCOC(=O)c1cc(N)c2c(c1)CCC(C)(C)N2` [Compound B-256]: the IC50 was 3820 nM. `c1ncc(-c2ccc(NC3COC3)c(NC3CCCC3)n2)cn1` [Compound H-84, N^2-cyclopentyl-N^3-(oxetan-3-yl)-6-pyrimidin-5-yl-pyridine-2,3-diamine] displayed an IC50 of 32 nM. The compound `CC1(Nc2nc(C(F)(F)F)ccc2NC2CCOC2)CCOC1` (centres unmarked) [Compound K-67, N^2-(3-methyltetrahydrofuran-3-yl)-N^3-tetrahydrofuran-3-yl-6-(trifluoromethyl)pyridine-2,3-diamine] displayed an IC50 of 355 nM. As for `OC(c1ccccc1)c1nc2c(c(NC3CCCC3)n1)NCCC2` (centres unmarked) [Compound A-10, [4-(cyclopentylamino)-5,6,7,8-tetrahydropyrido[3,2-d]pyrimidin-2-yl]-phenyl-methanol], the IC50 was determined as 71 nM. For `CCC(C)Nc1ccc(-c2ccccn2)nc1NC1(C)CCOC1` [Compound L-22, N^2-(3-methyltetrahydrofuran-3-yl)-6-(2-pyridyl)-N^3-sec-butyl-pyridine-2,3-diamine], the IC50 was determined as 14 nM.

Regarding `O=C(c1ccc(F)cc1)c1nc2c(c(NC3CCCC3)n1)NCCC2` [Compound A-17, [4-(cyclopentylamino)-5,6,7,8-tetrahydropyrido[3,2-d]pyrimidin-2-yl]-(4-fluorophenyl)methanone], 123 nM corresponded to half-maximal inhibition (IC50). The compound `Cc1ccc(-c2ccc(NC(C)(C)C)c(NC3CCCC3)n2)cc1` [Compound A-98, N^3-tert-butyl-N^2-cyclopentyl-6-(p-tolyl)pyridine-2,3-diamine] returned an IC50 of 7 nM. `CCCC(=O)c1ccc(NC2CC(F)(F)C2)c(NC2CC(F)(F)C2)n1` [Compound P-47, 1-[5,6-bis[(3,3-difluorocyclobutyl)amino]-2-pyridyl]butan-1-one] had an IC50 of 201 nM. `CCCC(=O)c1ccc(NC(C)CC)c(NC2CCCC2)n1` [Compound L-34, 1-[6-(cyclopentylamino)-5-(sec-butylamino)-2-pyridyl]butan-1-one] registered a 50% inhibitory concentration (IC50) of 21 nM. Compound `COCCOc1nc2c(c(NC3CCCC3)n1)NCCC2` [Compound B-495, N-cyclopentyl-2-(2-methoxyethoxy)-5,6,7,8-tetrahydropyrido[3,2-d]pyrimidin-4-amine] showed an IC50 of 160 nM. In turn, `CN(C)C(=O)c1ccc(-c2ccc(NC3CCC3)c(NC3(C)CCOC3)n2)cc1` (centres unmarked) [Compound P-53, 4-[5-(cyclobutylamino)-6-[(3-methyltetrahydrofuran-3-yl)amino]-2-pyridyl]-N,N-dimethyl-benzamide] registered an IC50 of 24 nM.

The compound `CCCCC(=O)c1ccc2c(c1)C=CC(C)(C)N2` [Compound B-100, 1-(2,2-dimethyl-1,2-dihydroquinolin-6-yl)pentan-1-one] registered an IC50 of 7440 nM. Still for that read-out and setting: the value for `CCC(C)Nc1ccc(-c2cncnc2)nc1NC1CCCC1` (centres unmarked) [Compound H-80, N^2-cyclopentyl-6-pyrimidin-5-yl-N^3-sec-butyl-pyridine-2,3-diamine] was 7 nM; that for `N#Cc1nc2c(c(NC3CCCC3)n1)NCCC2` [Compound F-38, 4-(cyclopentylamino)-5,6,7,8-tetrahydropyrido[3,2-d]pyrimidine-2-carbonitrile] was 812 nM; that for `C1CNc2c(nc(C3CCCC3)nc2NC2CCCC2)C1` [Compound B-456, N,2-Dicyclopentyl-5,6,7,8-tetrahydropyrido[3,2-d]pyrimidin-4-amine] was 153 nM.

As for `C(#Cc1nc2c(c(NC3CCCC3)n1)NCCC2)c1ccccc1` [Compound C-91, N-cyclopentyl-2-(2-phenylethynyl)-5,6,7,8-tetrahydropyrido[3,2-d]pyrimidin-4-amine], inhibition was half-maximal at 35 nM (IC50). Regarding `CCCCC(=O)c1cc2c(c(OC3CCCC3)c1)NCCC2` [Compound Q-980, 1-[8-(cyclopentoxy)-1,2,3,4-tetrahydroquinolin-6-yl]pentan-1-one], the concentration for half-maximal inhibition (IC50) is over 3000 nM. On the same count and under the same terms, under `CCCCC(O)c1nc2c(c(NC3CCCC3)n1)NCCC2` (centres unmarked) [Compound C-79, 1-[4-(cyclopentylamino)-5,6,7,8-tetrahydropyrido[3,2-d]pyrimidin-2-yl]pentan-1-ol] stands 112 nM.

The assay is the same for the next values; noted with them: Rattus norvegicus, N27, 24 h, ferroptosis induced by 0.5 μM RSL3, 24 hours, viability by MTT, cell unit uM.
Compound `CCCCC(=O)c1nc2c(c(Nc3ccccn3)n1)NCCC2` [Compound G-65, 1-[4-(2-pyridylamino)-5,6,7,8-tetrahydropyrido[3,2-d]pyrimidin-2-yl]pentan-1-one] showed an IC50 of over 10000 nM. As for `CCCCC(O)c1nc2c(c(Nc3ccccn3)n1)NCCC2` (centres unmarked) [Compound G-63, 1-[4-(2-pyridylamino)-5,6,7,8-tetrahydropyrido[3,2-d]pyrimidin-2-yl]pentan-1-ol], the IC50 is over 10000 nM.
